Patent publication US12422427B2, “Compounds for treatment of diseases and methods of screening therefor” (Max-Planck-Gesellschaft zur Förderung der Wissenschaften …, priority 2018, dated 2025)
“Also recorded” adds a separate entry of the source.

How the values were obtained:
FUS GFP = target: T1, FUS GFP (Homo sapiens, UniProt P35637); assay: In vitro purified FUS GFP droplet screen; format: biochemical; settings: low salt conditions, 1 mM DTT, up to 100 μM compound
T1 construct: His MBP (N, cleaved yes); made in house; host or cells: baculovirus/insect cell expression system
T1 sequence (P35637 1-526): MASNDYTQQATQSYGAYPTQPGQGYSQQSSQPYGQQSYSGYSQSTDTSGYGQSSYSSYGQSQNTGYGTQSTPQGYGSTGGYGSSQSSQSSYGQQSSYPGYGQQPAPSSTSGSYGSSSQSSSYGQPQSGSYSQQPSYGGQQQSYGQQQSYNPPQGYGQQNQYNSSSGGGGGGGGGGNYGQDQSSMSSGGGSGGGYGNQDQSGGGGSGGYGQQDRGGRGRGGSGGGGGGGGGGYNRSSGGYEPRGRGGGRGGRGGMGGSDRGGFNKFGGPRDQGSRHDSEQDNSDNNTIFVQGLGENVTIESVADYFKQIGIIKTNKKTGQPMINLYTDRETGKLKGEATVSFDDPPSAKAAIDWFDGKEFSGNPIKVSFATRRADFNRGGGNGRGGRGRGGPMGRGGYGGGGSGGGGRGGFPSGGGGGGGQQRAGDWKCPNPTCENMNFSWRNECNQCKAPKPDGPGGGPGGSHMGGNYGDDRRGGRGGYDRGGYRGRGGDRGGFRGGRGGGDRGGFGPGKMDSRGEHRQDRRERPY
Protocol: Compounds that can directly interact with FUS were of primary interest, therefore the inventors performed a follow up screen for action of compounds on FUS droplet formation in vitro (FIG. 1D). […] Hits were identified by the effect on number of FUS droplets formed and the partition of FUS into the droplets formed under low salt conditions in vitro in the presence of 1 mM DTT to mimic the reducing intracellular environment (FIG. 1E).
The effect of compounds on FUS GFP droplets in vitro was assessed in 384 well plate format. The compound volume (in DMSO) necessary for 1, 3, 10, 30 or 100 μM final concentration were added by acoustic dispensing (Labcyte Echo 550) to 96 well plate wells containing 3 μl FUS GFP diluted in 50 mM Tris. HCl pH 7.4, 1 mM DTT (for low salt assays). Final DMSO concentration was 0.01 to 1%. Using a Freedom Evo 200 liquid handling workstation (TECAN) the FUS GFP/compound mixture was diluted in 7 μl assay buffer containing 50 mM Tris. HCl pH 7.4, 1 mM DTT, 50 mM KCl and 0.7 μM FUS GFP. Compound/FUS GFP and assay buffer were mixed by a standardised pipetting procedure then split to four wells in clear bottom 384 well plates then immediately imaged using a CellVoyager CV7000 automated spinning disc confocal microscope (as above). […] Droplet number and FUS GFP partition into droplets were analysed with a fixed intensity threshold using ImageJ.

[1] = test system: HeLa, iPS and motor neuron cells; assay: Tolerance by cells in culture; format: cell-based
KIN-19 = format: in vivo, Caenorhabditis elegans; settings: 1.5 mM
Protocol: The effect of lipoic acid on stress granule protein aggregation in vivo was analysed using a C. elegans model for stress granule formation and aggregation. As previously described, fluorescent-tagged PAB-1 forms abundant stress granules and large solid aggregates during aging or upon chronic stress. RHO-1 and KIN-19 also aggregate during aging, but are not RNA binding or stress granule proteins. Three lines were used: Fluorescently tagged PAB-1 (DCD214: N2; uqIs24[pmyo-2::tagrfp::pab 1gene]), KIN-19 (CF3649: N2; muIs 209[pmyo-3::kin-19::tagrfp+ptph-1::GFP] and RHO-1 (DCD13: N2; uqIs9 [pmyo-2::rho-1::tagr fp+ptph-1::gfp]). Each were analysed as below, except DCD13 were maintained at 20° C.
The animals were exposed to lipoic acid in liquid culture in a 96 well plate starting from larval stage L4 in a total volume of 50 μl S-Complete per well (100 mM NaCl, 50 mM Potassium phosphate pH 6, 10 mM potassium citrate, 3 mM MgSO4, 3 mM CaCl2), 5 μg/mL cholesterol, 50 μM ethylenediaminetetraacetic acid (EDTA), 25 μM FeSO4, 10 μM MnCl2, 10 μM ZnSO4, 1 μM CuSO4) supplemented with heat-killed OP50 and 50 μg/ml carbenicillin. […] Toxicity was evaluated from the number of dead or aberrantly small-sized animals.
48 h after switching the L4s from 20° C. to 25° C. […] After immobilization with 2 mM levamisole aggregation was scored using a fluorescent stereo microscope (Leica M165 FC, Plan Apo 2.0× objective). […]

Row | Compound | FUS GFP droplet number, partition into droplets and droplet size (FUS GFP) | tolerance by HeLa, iPS and motor neuron cells in culture [1] | KIN-19 aggregation (KIN-19)
1 | NC(=O)CCCCC1CCSS1 (racemic) [lipoamide, 5-(1,2-dithiolan-3-yl)pentanamide] | increase condensate droplet number, partition into droplets and the droplets were larger; also recorded: larger drops | well-tolerated | –
2 | O=C(O)CCCCC1CCSS1 (racemic) [lipoic acid, 5-(1,2-dithiolan-3-yl)pentanoic acid] | – | – | mild decrease
